Activity calls are given as the source filed them. How the calls were made is not given here.
System: CCRIS mutagenicity, Ames/micronucleus/aberration tests
Assay: CCRIS mutagenicity studies
[1] = Test System: AMES SALMONELLA TYPHIMURIUM, Strain/Indicator: TA98, Metabolic Activation: NONE, Method: PREINCUBATION
[2] = Test System: AMES SALMONELLA TYPHIMURIUM, Strain/Indicator: TA100, Metabolic Activation: NONE, Method: STANDARD PLATE

## CC(C)=CCl
End Point: IN VITRO CHROMOSOMAL ABERRATIONS, Test System: CHO CELLS, Metabolic Activation: NONE
  mutagenic call: inactive; negative
End Point: IN VITRO CHROMOSOMAL ABERRATIONS, Test System: CHO CELLS, Metabolic Activation: RAT, LIVER, S-9, AROCLOR 1254
  mutagenic call: inactive; negative
Test System: AMES SALMONELLA TYPHIMURIUM, Strain/Indicator: TA98, Metabolic Activation: HAMSTER, LIVER, S-9, AROCLOR 1254 (10%), Method: PREINCUBATION
  mutagenic call: inactive; negative
[1]
  mutagenic call: inactive; negative
Test System: AMES SALMONELLA TYPHIMURIUM, Strain/Indicator: TA98, Metabolic Activation: RAT, LIVER, S-9, AROCLOR 1254 (10%), Method: PREINCUBATION
  mutagenic call: inactive; negative
Test System: AMES SALMONELLA TYPHIMURIUM, Strain/Indicator: TA100, Metabolic Activation: HAMSTER, LIVER, S-9, AROCLOR 1254 (10%), Method: PREINCUBATION
  mutagenic call: inactive; negative
Test System: AMES SALMONELLA TYPHIMURIUM, Strain/Indicator: TA100, Metabolic Activation: NONE, Method: PREINCUBATION
  mutagenic call: inactive; negative
Test System: AMES SALMONELLA TYPHIMURIUM, Strain/Indicator: TA100, Metabolic Activation: RAT, LIVER, S-9, AROCLOR 1254 (10%), Method: PREINCUBATION
  mutagenic call: inactive; negative
Test System: AMES SALMONELLA TYPHIMURIUM, Strain/Indicator: TA102, Metabolic Activation: RAT, LIVER, S-9, PHENOBARBITAL AND 5,6-BENZOFLAVONE, Method: STANDARD PLATE
  mutagenic call: inactive; negative
Test System: AMES SALMONELLA TYPHIMURIUM, Strain/Indicator: TA1535, Metabolic Activation: HAMSTER, LIVER, S-9, AROCLOR 1254 (10%), Method: PREINCUBATION
  mutagenic call: inactive; negative
Test System: AMES SALMONELLA TYPHIMURIUM, Strain/Indicator: TA1535, Metabolic Activation: NONE, Method: PREINCUBATION
  mutagenic call: inactive; negative
Test System: AMES SALMONELLA TYPHIMURIUM, Strain/Indicator: TA1535, Metabolic Activation: RAT, LIVER, S-9, AROCLOR 1254 (10%), Method: PREINCUBATION
  mutagenic call: inactive; negative
Test System: AMES SALMONELLA TYPHIMURIUM, Strain/Indicator: TA1537, Metabolic Activation: HAMSTER, LIVER, S-9, AROCLOR 1254 (10%), Method: PREINCUBATION
  mutagenic call: inactive; negative
Test System: AMES SALMONELLA TYPHIMURIUM, Strain/Indicator: TA1537, Metabolic Activation: NONE, Method: PREINCUBATION
  mutagenic call: inactive; negative
Test System: AMES SALMONELLA TYPHIMURIUM, Strain/Indicator: TA1537, Metabolic Activation: RAT, LIVER, S-9, AROCLOR 1254 (10%), Method: PREINCUBATION
  mutagenic call: inactive; negative
Test System: AMES SALMONELLA TYPHIMURIUM, Strain/Indicator: TA2638, Metabolic Activation: RAT, LIVER, S-9, PHENOBARBITAL AND 5,6-BENZOFLAVONE, Method: STANDARD PLATE
  mutagenic call: inactive; negative
Test System: E. COLI, Strain/Indicator: WP2 (PKM101), Metabolic Activation: RAT, LIVER, S-9, PHENOBARBITAL AND 5,6-BENZOFLAVONE, Method: STANDARD PLATE
  mutagenic call: inactive; negative
Test System: E. COLI, Strain/Indicator: WP2 UVRA (PKM101), Metabolic Activation: RAT, LIVER, S-9, PHENOBARBITAL AND 5,6-BENZOFLAVONE, Method: STANDARD PLATE
  mutagenic call: inactive; negative
Test System: MOUSE LYMPHOMA, Strain/Indicator: L5178Y (TK+/TK-), Metabolic Activation: RAT, LIVER, S-9, AROCLOR 1254, Method: SUSPENSION/PLATE
  mutagenic call: active; positive. reevaluation of results: positive
Test System: Mouse lymphoma, Strain/Indicator: L5178Y (tk+/tk-), Metabolic Activation: None, Method: Suspension/plate
  mutagenic call: inactive; negative

## Cc1cccn2c1nc1ccc(NO)nc12
[1]
  mutagenic call: active; positive
Test System: AMES SALMONELLA TYPHIMURIUM, Strain/Indicator: YG1020, Metabolic Activation: NONE, Method: PREINCUBATION
  mutagenic call: active; positive
Test System: AMES SALMONELLA TYPHIMURIUM, Strain/Indicator: YG1021, Metabolic Activation: NONE, Method: PREINCUBATION
  mutagenic call: active; positive
Test System: AMES SALMONELLA TYPHIMURIUM, Strain/Indicator: YG1024, Metabolic Activation: NONE, Method: PREINCUBATION
  mutagenic call: active; positive
Test System: AMES SALMONELLA TYPHIMURIUM, Strain/Indicator: YG1025, Metabolic Activation: NONE, Method: PREINCUBATION
  mutagenic call: inactive; negative
Test System: AMES SALMONELLA TYPHIMURIUM, Strain/Indicator: YG1029, Metabolic Activation: NONE, Method: PREINCUBATION
  mutagenic call: active; positive
Test System: AMES SALMONELLA TYPHIMURIUM, Strain/Indicator: YG1041, Metabolic Activation: NONE, Method: PREINCUBATION
  mutagenic call: active; positive

## Oc1cc2ccccc2c2cc3c(ccc4ccccc43)nc12
Test System: AMES SALMONELLA TYPHIMURIUM, Strain/Indicator: TA100, Metabolic Activation: GUINEA PIG, LIVER, S-9, 3-METHYLCHOLANTHRENE, Method: STANDARD PLATE
  mutagenic call: inactive; negative
Test System: CHINESE HAMSTER V-79, Strain/Indicator: V-79/6-THIOGUANINE, Metabolic Activation: GUINEA PIG, LIVER, S-9, 3-METHYLCHOLANTHRENE
  mutagenic call: inactive; negative

## CC(C)(C)c1cc(Cc2cc(C(C)(C)C)c(O)c(C(C)(C)C)c2)cc(C(C)(C)C)c1O
Test System: AMES SALMONELLA TYPHIMURIUM, Strain/Indicator: TA97, Metabolic Activation: NONE, Method: STANDARD PLATE
  mutagenic call: inactive; negative
Test System: AMES SALMONELLA TYPHIMURIUM, Strain/Indicator: TA97, Metabolic Activation: S-9, Method: STANDARD PLATE
  mutagenic call: inactive; negative
Test System: AMES SALMONELLA TYPHIMURIUM, Strain/Indicator: TA98, Metabolic Activation: NONE, Method: STANDARD PLATE
  mutagenic call: inactive; negative
Test System: AMES SALMONELLA TYPHIMURIUM, Strain/Indicator: TA98, Metabolic Activation: S-9, Method: STANDARD PLATE
  mutagenic call: inactive; negative
[2]
  mutagenic call: inactive; negative
Test System: AMES SALMONELLA TYPHIMURIUM, Strain/Indicator: TA100, Metabolic Activation: S-9, Method: STANDARD PLATE
  mutagenic call: inactive; negative
Test System: AMES SALMONELLA TYPHIMURIUM, Strain/Indicator: TA102, Metabolic Activation: NONE, Method: STANDARD PLATE
  mutagenic call: inactive; negative
Test System: AMES SALMONELLA TYPHIMURIUM, Strain/Indicator: TA102, Metabolic Activation: S-9, Method: STANDARD PLATE
  mutagenic call: inactive; negative
Test System: E.COLI, Strain/Indicator: WP2 (PKM101), Metabolic Activation: NONE, Method: STANDARD PLATE
  mutagenic call: inactive; negative
Test System: E.COLI, Strain/Indicator: WP2 (PKM101), Metabolic Activation: S-9, Method: STANDARD PLATE
  mutagenic call: inactive; negative

## CN(Cc1cccc(C#N)c1)N=O
Test System: AMES SALMONELLA TYPHIMURIUM, Strain/Indicator: TA1535, Metabolic Activation: HAMSTER, LIVER, S-9, AROCLOR 1254, Method: STANDARD PLATE
  mutagenic call: active; positive
Test System: AMES SALMONELLA TYPHIMURIUM, Strain/Indicator: TA1535, Metabolic Activation: NONE, Method: STANDARD PLATE
  mutagenic call: active; positive

## NC(=O)N(CCCl)N=O
Test System: CHINESE HAMSTER V-79, Strain/Indicator: V-79/6-THIOGUANINE, Metabolic Activation: NONE, Method: STANDARD PLATE
  mutagenic call: active; positive
Test System: E. COLI B, Strain/Indicator: H/R30R, Metabolic Activation: NONE
  mutagenic call: active; positive
Test System: E. COLI B, Strain/Indicator: HS30R, Metabolic Activation: NONE
  mutagenic call: active; positive

## O=c1ccc2ccccc2[nH]1
[2]
  mutagenic call: inactive; negative
Test System: AMES SALMONELLA TYPHIMURIUM, Strain/Indicator: TA100, Metabolic Activation: RAT, LIVER, S-9, AROCLOR 1254 (10% OR 20%), Method: STANDARD PLATE
  mutagenic call: inactive; negative

## c1ccc2c(c1)ccc1c2ccc2ccc3ccccc3c21
Test System: AMES SALMONELLA TYPHIMURIUM, Strain/Indicator: TA100, Metabolic Activation: RAT, LIVER, MICROSOMES, AROCLOR 1254, Method: STANDARD PLATE
  mutagenic call: active; positive
Test System: AMES SALMONELLA TYPHIMURIUM, Strain/Indicator: TA100, Metabolic Activation: RAT, LIVER, MICROSOMES, BENZO[C]CHRYSENE, Method: STANDARD PLATE
  mutagenic call: inactive; negative
Test System: AMES SALMONELLA TYPHIMURIUM, Strain/Indicator: TA100, Metabolic Activation: RAT, LIVER, MICROSOMES, Method: STANDARD PLATE
  mutagenic call: inactive; negative
